According to paper PMC10649274 (International Journal of Molecular Sciences, 2023):
“Also recorded” adds a separate entry of the source. Where two headings read alike, the source gives them in different places.

What was measured:
[1] = system: native NMDA receptors; conditions: cited from earlier work; for IC50: −80 mV holding voltage, native NMDA receptors, earlier papers of the authors, read-out: IC50, −80 mV
[2] = system: rat retinal excitotoxicity model; conditions: cited from earlier work
[3] = system: native NMDA receptors; test: Whole-cell patch clamp of NMDA plus glycine induced currents in isolated CA1 pyramidal neurons; format: cell-based, rat; conditions: for change of inhibition with increase of NMDA concentration / inhibition at 1 mM NMDA: −30 mV
Method: The rats were anesthetised with sevoflurane and then decapitated. The brains were brought out quickly and cooled to 2–4 °C. […] All experiments were performed at room temperature.
Vibrodissociation method was used to free CA1 pyramidal neurons from slices. This method allows for isolating cells without enzymatic treatment and keeping them in more native state. Pyramidal cells were isolated from the stratum pyramidale and distinguished from non-pyramidal cells on the basis of pyramidal-like somata and preserved apical dendrites.
To record membrane currents in response to applications of NMDA and glycine, the whole-cell configuration of patch clamp technique was used. Series resistance (<20 MΩ) was compensated by 70–80% and monitored during experiments. Only cells with stable holding currents were used in further analysis. The current signals were amplified using EPC-8 (HEKA Electronics, Lambrecht, Germany), filtered at 5 kHz, sampled, and stored on a personal computer. RSC-200 (BioLogic Science Instruments, Claix, France) perfusion system was used to apply the drugs under computer control. […] The pipettes with resistance of 2–5 MΩ were filled with the following solution (in mM): CsF 100, CsCl 40, NaCl 5, CaCl2 0.5, EGTA 5, HEPES 10 (pH adjusted to 7.2 with CsOH). […] Other reagents were purchased from MedChemExpress (Monmouth Junction, NJ, USA), Sigma (St. Louis, MO, USA), or Tocris Bioscience (Bristol, UK).
NMDA receptors were activated with 100 µM NMDA plus 10 µM glycine unless otherwise stated. […] Kinetics of transient processes of more than 20 ms duration were approximated with single or double exponential functions. In case of double exponential fitting, the weighted time constant was used.

[4] = molecular target: native NMDA receptors; test: Analysis of voltage dependence of NMDA receptor block (Woodhull model with voltage-independent component, Equation (2)); format: cell-based, rat
Method: NMDA receptors were activated with 100 µM NMDA plus 10 µM glycine unless otherwise stated. The percentages of blocking of the steady-state or peak currents by different drug concentrations were measured at −80, −30 or +30 mV holding voltages. Kinetics of transient processes of more than 20 ms duration were approximated with single or double exponential functions. In case of double exponential fitting, the weighted time constant was used.
The voltage dependence of compounds’ action was analyzed with the classical Woodhull model with the addition of a voltage-independent component. […] Kb is the affinity of a drug for the channel, and δ is the electrical depth of the binding site. The δ value reflects the fraction of membrane electric field that the charged blocking molecule crosses on its pathway between the external media and the binding site in the channel.
Thus, we deduced Equation (2), taking it into account and assuming that the binding to the deep and shallow site is independent:(2) B=100−100/(1+C/(Kvd∗exp〖Fzδ/RTV〗)+C/Kvi+(C∗C)/((Kvd∗exp〖Fzδ/RTV〗∗Kvi))
In this equation, Kvd is the affinity of the drug to the deep site, Kvi—the affinity of the drug to the shallow site, and other parameters are the same as in Equation (1).
All experimental data are presented as the mean ± SD estimated from at least four experiments (cells). Significance of the effects was tested with t-tests. Differences were considered significant at p < 0.05. Concentration dependencies were approximated with Hill equation. Voltage dependencies were approximated with Equation (2). […] Approximation error values were taken as the precision measures.

[5] = system: native NMDA receptors; conditions: cited from earlier work
[6] = Equation (2) with fixed zδ (0.55 mono-, 1.1 dicationic), reanalysis of earlier data [16],[17], read-out: Kvd, fixed zδ (converted)
[7] = Equation (2) with fixed zδ (0.55 mono-, 1.1 dicationic), reanalysis of earlier data [16],[17], read-out: Kvi, fixed zδ (converted)
[8] = fit with consensus zδ, read-out: binding constant for the deep site (Kvd)
[9] = Equation (2) fit, zδ free, reanalysis of the authors' earlier voltage dependence data [16],[17], read-out: Kvd
[10] = Equation (2) fit, zδ free, reanalysis of the authors' earlier voltage dependence data [16],[17], read-out: Kvi

Row | Kd [4, 6] | Kd [4, 7] | Kd [4, 8] | Kd [4, 9] | Kd [4, 10] | SMILES | inhibition of native NMDA receptors [1] | IC50 [1] | retinal protection [2] | inhibition at high NMDA concentrations ([3]; 5 µM, high NMDA concentrations) | change of inhibition with increase of NMDA concentration [3] | inhibition at 1 mM NMDA [3] | change of inhibition with increase of NMDA concentration from 30 to 1000 µM ([3]; −80 mV) | type of channel block (interaction with channel gate) [1] | voltage dependence of NMDA receptor inhibition [5] | change of inhibition with increase of NMDA concentration from 30 to 1000 µM ([3]; holding voltage not stated)
1 | – | – | – | – | – | CN(C)C(=O)COC(=O)Cc1ccc(OC(=O)c2ccc(NC(=N)N)cc2)cc1 [Camostat] | low activity; also recorded: practically ineffective | > 100 µM | did not demonstrate retinal protection activities | – | – | – | – | – | – | –
2 | – | – | – | – | – | NC(CCCP(=O)(O)O)C(=O)O [D-AP5] | – | – | – | became weak, decaying to zero | – | – | – | – | – | –
3 | 5000 µM | 3.16 µM | > 1000 µM | – | – | N=C(N)c1ccc(-c2cc3ccc(C(=N)N)cc3[nH]2)cc1 [DAPI] | – | 3.1 ± 0.6 µM | – | – | agonist-dependent | remained significant | agonist-dependent | foot-in-the-door | Completely voltage-independent | –
4 | 1500 µM | 14 ± 2 µM | > 1000 µM | ~600 µM | 14 ± 2 µM | N=C(N)c1ccc(/N=N/Nc2ccc(C(=N)N)cc2)cc1 [Diminazene] | – | 13 ± 3 µM | – | – | significant attenuation | remained significant | did not differ significantly | foot-in-the-door | complex voltage dependence | –
5 | 21.8 µM | 3.3 µM | – | 20 ± 5 µM | 3.4 ± 0.4 µM | N=C(N)c1ccc(-c2ccc(-c3ccc(C(=N)N)cc3)o2)cc1 [Furamidine] | – | 0.64 ± 0.13 µM | – | – | – | – | – | foot-in-the-door | strongly voltage-dependent | not attenuated significantly
